According to US5395922A, “Yeast processing system” (Novo Nordisk A/S, priority 1989, dated 1995):

Columns and labels:
Format in all cases: biochemical
plasmin = plasmin (Homo sapiens, UniProt P00747); assay: Plasmin inhibition titration curves (S 2251 substrate, rate of nitroaniline production); conditions: 30 minutes incubation of enzyme with inhibitor, 0.6 mM S 2251; FIG. 5B
Procedure: (§1) The trypsin and plasmin inhibition by Glu-Leu-aprotinin (1-58) in terms of titration curves determined as described below were indistinguishable from that of bovine pancreatic aprotinin (Aprotinin Novo). After incubation of the enzyme with aprotinin or its analogues for 30 minutes, 0.6 mM S 2251 (KabiVitrum) was added and the activity measured as the rate of nitroaniline production. The activity as a function of aprotinin concentration is plotted in FIG. 5A and 5B. Complete inhibition of both enzymes with all three inhibitors was observed.

trypsin [1] = assay: Trypsin inhibition titration curves (S 2251 substrate, rate of nitroaniline production); conditions: 30 minutes incubation of enzyme with inhibitor, 0.6 mM S 2251; FIG. 5A
Procedure: as §1

trypsin [2] = assay: Trypsin inhibitor specific activity, spectrophotometric assay (method of Kassel); conditions: comparison with native aprotinin
Procedure: Yeast strain KFN-837 was grown on YPD medium (1% yeast extract, 2% peptone (from Difco Laboratories), and 6% glucose). A 200 ml culture of the strain was shaken at 250 rpm at 30° C. for 3 days to an O.D. at 600 nm of 20 (Dry yeast biomass 18.8 g/liter). After centrifugation the supernatant was analyzed by FPLC ion exchange chromatography. The yeast supernatant was filtered through a 0.22 μm Millex GV filter unit and 1 ml was applied on a MonoS cation exchange column (0.5×5 cm) equilibrated with 20 mM Bicine, pH=8.7. After wash with equilibration buffer the column was eluted with a linear NaCl gradient (0-1M) in equilibration buffer. Trypsin inhibitor activity was quantified in the eluted fractions by spectrophotometric assay (Kassel, B., Methods Enzymol. 19 (1970), 844-852) and furthermore by integration of absorption at 280 nm from [formula] The yield was […] of Glu-Leu-aprotinin(1-58).
The trypsin and plasmin inhibition by Glu-Leu-aprotinin (1-58) in terms of titration curves determined as described below were indistinguishable from that of bovine pancreatic aprotinin (Aprotinin Novo). After incubation of the enzyme with aprotinin or its analogues for 30 minutes, 0.6 mM S 2251 (KabiVitrum) was added and the activity measured as the rate of nitroaniline production. The activity as a function of aprotinin concentration is plotted in FIG. 5A and 5B. […]

Chain of plasmin (P00747 581-810 limits assumed, species assumed): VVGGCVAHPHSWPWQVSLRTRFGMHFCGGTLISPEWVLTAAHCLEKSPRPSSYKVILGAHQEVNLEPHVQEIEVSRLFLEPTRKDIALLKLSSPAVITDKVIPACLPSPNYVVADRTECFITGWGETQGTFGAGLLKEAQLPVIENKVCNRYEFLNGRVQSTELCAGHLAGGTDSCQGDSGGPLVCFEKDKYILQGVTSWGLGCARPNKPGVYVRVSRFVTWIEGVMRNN
Chain of plasmin (P00747 97-580 partner limits assumed, species assumed): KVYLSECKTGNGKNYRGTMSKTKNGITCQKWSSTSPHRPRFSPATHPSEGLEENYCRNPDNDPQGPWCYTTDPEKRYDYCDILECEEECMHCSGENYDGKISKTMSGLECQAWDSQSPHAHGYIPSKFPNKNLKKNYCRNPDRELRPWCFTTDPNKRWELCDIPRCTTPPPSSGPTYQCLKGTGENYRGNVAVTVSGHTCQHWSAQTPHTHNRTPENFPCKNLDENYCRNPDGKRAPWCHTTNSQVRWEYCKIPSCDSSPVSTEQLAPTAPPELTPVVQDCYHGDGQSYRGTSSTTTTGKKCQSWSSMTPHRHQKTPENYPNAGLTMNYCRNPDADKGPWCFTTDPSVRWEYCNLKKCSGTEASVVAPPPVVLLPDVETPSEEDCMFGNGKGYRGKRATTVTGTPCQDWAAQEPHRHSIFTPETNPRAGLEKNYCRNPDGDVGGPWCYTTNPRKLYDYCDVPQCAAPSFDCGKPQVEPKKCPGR

Substance | plasmin inhibition in terms of titration curves, compared with bovine pancreatic aprotinin (Aprotinin Novo) (plasmin) | trypsin inhibition in terms of titration curves, compared with bovine pancreatic aprotinin (Aprotinin Novo) (trypsin [1]) | specific (inhibitory) activity against trypsin compared with native / bovine pancreatic aprotinin (trypsin [2])
Glu-Leu-Asp-Leu-aprotinin(1-58) | indistinguishable | indistinguishable | 
Glu-Leu-aprotinin(1-58) | indistinguishable | indistinguishable | identical within the experimental error
aprotinin(1-58) |  |  | indistinguishable
